Reference: ChEMBL document CHEMBL3885881, “DrugMatrix”

Organism: Rattus norvegicus
Test: DrugMatrix - Regimen: Daily Repeat
Assay type: toxicity, organism-based, Sprague-Dawley
Parameters: regimen Daily Repeat, gender Male, age 6-8 weeks
Conditions: in vivo, po, route oral GAVAGE, vehicle .5 % CMC; for BASOPHIL / EOSINOPHIL / ERYTHROCYTE COUNT / HEMATOCRIT / HEMOGLOBIN / LEUKOCYTE COUNT / LYMPHOCYTE / MEAN CORPUSCULAR HEMOGLOBIN / MEAN CORPUSCULAR HEMOGLOBIN CONCENTRATION / MEAN CORPUSCULAR VOLUME / MONOCYTE / NEUTROPHIL / PLATELET COUNT: tissue Blood; for ALANINE AMINOTRANSFERASE / ALBUMIN / ALKALINE PHOSPHATASE / ASPARTATE AMINOTRANSFERASE / BLOOD UREA NITROGEN / CARBON DIOXIDE / CHLORIDE / CHOLESTEROL / CREATINE PHOSPHOKINASE / CREATININE / GLUCOSE / LACTATE DEHYDROGENASE / LIPASE / PHOSPHORUS / POTASSIUM / SODIUM / TOTAL BILIRUBIN / TOTAL PROTEIN / URIC ACID: tissue Plasma
[1] = 0 mg/kg, 72 h, dose level Control, time 3 day
[2] = 0 mg/kg, 120 h, dose level Control, time 5 day
[3] = 47 mg/kg, 72 h, dose level Low, time 3 day
[4] = 47 mg/kg, 120 h, dose level Low, time 5 day
[5] = 1200 mg/kg, 72 h, dose level High, time 3 day
[6] = 1200 mg/kg, 120 h, dose level High, time 5 day

## Nc1ccn([C@H]2CC[C@@H](CO)O2)c(=O)n1 [ZALCITABINE]
[1]
  BASOPHIL: 0.17%
  EOSINOPHIL: 0.83%
  ERYTHROCYTE COUNT: 7.2 x10E6/uL
  HEMATOCRIT: 43.13%
  HEMOGLOBIN: 14.63 G/DL
  LEUKOCYTE COUNT: 9.05 x10E3/uL
  LYMPHOCYTE: 75.17%
  MEAN CORPUSCULAR HEMOGLOBIN: 20.35 pg
  MEAN CORPUSCULAR HEMOGLOBIN CONCENTRATION: 33.95 G/DL
  MEAN CORPUSCULAR VOLUME: 59.93 fL
  MONOCYTE: 2.83%
  NEUTROPHIL: 21.17%
  PLATELET COUNT: 1093.17 x10E3/uL
  ALANINE AMINOTRANSFERASE: 49.17 u/L
  ALBUMIN: 4.33 G/DL
  ALKALINE PHOSPHATASE: 366.5 u/L
  ASPARTATE AMINOTRANSFERASE: 86.33 u/L
  BLOOD UREA NITROGEN: 17 mg/dL
  CARBON DIOXIDE: 24.17 mmol/L
  CHLORIDE: 102.83 MEQ/L
  CHOLESTEROL: 78.33 mg/dL
  CREATINE PHOSPHOKINASE: 320.83 u/L
  CREATININE: 0.3 mg/dL
  GLUCOSE: 140.83 mg/dL
  LACTATE DEHYDROGENASE: 210 u/L
  LIPASE: 9.33 u/L
  PHOSPHORUS: 9.12 mg/dL
  POTASSIUM: 5.65 MEQ/L
  SODIUM: 144.17 MEQ/L
  TOTAL BILIRUBIN: 0.1 mg/dL
  TOTAL PROTEIN: 6.3 G/DL
  URIC ACID: 1.03 mg/dL
[2]
  BASOPHIL: 0.17%
  EOSINOPHIL: 1%
  ERYTHROCYTE COUNT: 7.02 x10E6/uL
  HEMATOCRIT: 43.12%
  HEMOGLOBIN: 14.18 G/DL
  LEUKOCYTE COUNT: 9.63 x10E3/uL
  LYMPHOCYTE: 72%
  MEAN CORPUSCULAR HEMOGLOBIN: 20.25 pg
  MEAN CORPUSCULAR HEMOGLOBIN CONCENTRATION: 32.95 G/DL
  MEAN CORPUSCULAR VOLUME: 61.43 fL
  MONOCYTE: 2.67%
  NEUTROPHIL: 24.5%
  PLATELET COUNT: 1028.5 x10E3/uL
  ALANINE AMINOTRANSFERASE: 42.5 u/L
  ALBUMIN: 4.2 G/DL
  ALKALINE PHOSPHATASE: 300.33 u/L
  ASPARTATE AMINOTRANSFERASE: 87.67 u/L
  BLOOD UREA NITROGEN: 17 mg/dL
  CARBON DIOXIDE: 24.33 mmol/L
  CHLORIDE: 99 MEQ/L
  CHOLESTEROL: 70.67 mg/dL
  CREATINE PHOSPHOKINASE: 891.33 u/L
  CREATININE: 0.3 mg/dL
  GLUCOSE: 139.67 mg/dL
  LACTATE DEHYDROGENASE: 289.83 u/L
  LIPASE: 8.83 u/L
  PHOSPHORUS: 9.5 mg/dL
  POTASSIUM: 5.55 MEQ/L
  SODIUM: 139 MEQ/L
  TOTAL BILIRUBIN: 0.0833 mg/dL
  TOTAL PROTEIN: 6.1 G/DL
  URIC ACID: 0.98 mg/dL
[3]
  BASOPHIL: 0.33%
  EOSINOPHIL: 1.67%
  ERYTHROCYTE COUNT: 7.03 x10E6/uL
  HEMATOCRIT: 42.67%
  HEMOGLOBIN: 14.33 G/DL
  LEUKOCYTE COUNT: 10.43 x10E3/uL
  LYMPHOCYTE: 70.67%
  MEAN CORPUSCULAR HEMOGLOBIN: 20.4 pg
  MEAN CORPUSCULAR HEMOGLOBIN CONCENTRATION: 33.57 G/DL
  MEAN CORPUSCULAR VOLUME: 60.7 fL
  MONOCYTE: 2.33%
  NEUTROPHIL: 25%
  PLATELET COUNT: 1049.33 x10E3/uL
  ALANINE AMINOTRANSFERASE: 49.33 u/L
  ALBUMIN: 4.27 G/DL
  ALKALINE PHOSPHATASE: 380.5 u/L
  ASPARTATE AMINOTRANSFERASE: 78.67 u/L
  BLOOD UREA NITROGEN: 18.33 mg/dL
  CARBON DIOXIDE: 22.33 mmol/L
  CHLORIDE: 101 MEQ/L
  CHOLESTEROL: 74.67 mg/dL
  CREATINE PHOSPHOKINASE: 442.33 u/L
  CREATININE: 0.27 mg/dL
  GLUCOSE: 147 mg/dL
  LACTATE DEHYDROGENASE: 216.67 u/L
  LIPASE: 9 u/L
  PHOSPHORUS: 9.3 mg/dL
  POTASSIUM: 5.95 MEQ/L
  SODIUM: 143.67 MEQ/L
  TOTAL BILIRUBIN: 0.1 mg/dL
  TOTAL PROTEIN: 6.27 G/DL
  URIC ACID: 0.87 mg/dL
[4]
  BASOPHIL: 0.33%
  EOSINOPHIL: 1%
  ERYTHROCYTE COUNT: 7.41 x10E6/uL
  HEMATOCRIT: 44.03%
  HEMOGLOBIN: 14.73 G/DL
  LEUKOCYTE COUNT: 11.23 x10E3/uL
  LYMPHOCYTE: 81.67%
  MEAN CORPUSCULAR HEMOGLOBIN: 19.83 pg
  MEAN CORPUSCULAR HEMOGLOBIN CONCENTRATION: 33.4 G/DL
  MEAN CORPUSCULAR VOLUME: 59.43 fL
  MONOCYTE: 2.33%
  NEUTROPHIL: 15.67%
  PLATELET COUNT: 1184 x10E3/uL
  ALANINE AMINOTRANSFERASE: 46 u/L
  ALBUMIN: 4.43 G/DL
  ALKALINE PHOSPHATASE: 323 u/L
  ASPARTATE AMINOTRANSFERASE: 95.67 u/L
  BLOOD UREA NITROGEN: 15.67 mg/dL
  CARBON DIOXIDE: 22.33 mmol/L
  CHLORIDE: 98.33 MEQ/L
  CHOLESTEROL: 68 mg/dL
  CREATINE PHOSPHOKINASE: 672 u/L
  CREATININE: 0.3 mg/dL
  GLUCOSE: 129 mg/dL
  LACTATE DEHYDROGENASE: 673.67 u/L
  LIPASE: 8.67 u/L
  PHOSPHORUS: 9.57 mg/dL
  POTASSIUM: 5.77 MEQ/L
  SODIUM: 140.67 MEQ/L
  TOTAL BILIRUBIN: 0.1 mg/dL
  TOTAL PROTEIN: 6.4 G/DL
  URIC ACID: 1.23 mg/dL
[5]
  BASOPHIL: 0.33%
  EOSINOPHIL: 1%
  ERYTHROCYTE COUNT: 7.16 x10E6/uL
  HEMATOCRIT: 42.4%
  HEMOGLOBIN: 14.27 G/DL
  LEUKOCYTE COUNT: 9.77 x10E3/uL
  LYMPHOCYTE: 80.33%
  MEAN CORPUSCULAR HEMOGLOBIN: 20 pg
  MEAN CORPUSCULAR HEMOGLOBIN CONCENTRATION: 33.73 G/DL
  MEAN CORPUSCULAR VOLUME: 59.27 fL
  MONOCYTE: 2.33%
  NEUTROPHIL: 16.33%
  PLATELET COUNT: 1274 x10E3/uL
  ALANINE AMINOTRANSFERASE: 63.67 u/L
  ALBUMIN: 4.3 G/DL
  ALKALINE PHOSPHATASE: 291.67 u/L
  ASPARTATE AMINOTRANSFERASE: 78 u/L
  BLOOD UREA NITROGEN: 15.33 mg/dL
  CARBON DIOXIDE: 22.67 mmol/L
  CHLORIDE: 103.67 MEQ/L
  CHOLESTEROL: 79 mg/dL
  CREATINE PHOSPHOKINASE: 509 u/L
  CREATININE: 0.3 mg/dL
  GLUCOSE: 141.33 mg/dL
  LACTATE DEHYDROGENASE: 255.33 u/L
  LIPASE: 9.33 u/L
  PHOSPHORUS: 10.23 mg/dL
  POTASSIUM: 5.83 MEQ/L
  SODIUM: 146.33 MEQ/L
  TOTAL BILIRUBIN: 0.1 mg/dL
  TOTAL PROTEIN: 6.17 G/DL
  URIC ACID: 1.33 mg/dL
[6]
  BASOPHIL: 0%
  EOSINOPHIL: 0.67%
  ERYTHROCYTE COUNT: 7.45 x10E6/uL
  HEMATOCRIT: 45%
  HEMOGLOBIN: 15 G/DL
  LEUKOCYTE COUNT: 9.43 x10E3/uL
  LYMPHOCYTE: 80%
  MEAN CORPUSCULAR HEMOGLOBIN: 20.1 pg
  MEAN CORPUSCULAR HEMOGLOBIN CONCENTRATION: 33.37 G/DL
  MEAN CORPUSCULAR VOLUME: 60.37 fL
  MONOCYTE: 2.33%
  NEUTROPHIL: 16.33%
  PLATELET COUNT: 957.67 x10E3/uL
  ALANINE AMINOTRANSFERASE: 49.33 u/L
  ALBUMIN: 4.1 G/DL
  ALKALINE PHOSPHATASE: 291.67 u/L
  ASPARTATE AMINOTRANSFERASE: 101.33 u/L
  BLOOD UREA NITROGEN: 15.33 mg/dL
  CARBON DIOXIDE: 22.67 mmol/L
  CHLORIDE: 99.67 MEQ/L
  CHOLESTEROL: 63.33 mg/dL
  CREATINE PHOSPHOKINASE: 865 u/L
  CREATININE: 0.3 mg/dL
  GLUCOSE: 138 mg/dL
  LACTATE DEHYDROGENASE: 744.67 u/L
  LIPASE: 8.33 u/L
  PHOSPHORUS: 9.43 mg/dL
  POTASSIUM: 5.67 MEQ/L
  SODIUM: 141 MEQ/L
  TOTAL BILIRUBIN: 0.1 mg/dL
  TOTAL PROTEIN: 6.23 G/DL
  URIC ACID: 0.9 mg/dL
